In PubChem BioAssay (NCI) one finds TGI and GI50 data, which are given here for 24 molecules.

Some test systems named below: MALME-3M melanoma; NCI/ADR-RES ovarian; MDA-N; ACHN renal; A498 renal; SN12C renal; HCT-116 colon; SNB-78 CNS; P388 leukemia; M19-MEL melanoma; HOP-18 NSCLC; DLD-1 colon; XF 498 CNS; P388/ADR leukemia; DMS 273 small cell lung; KM20L2 colon; DMS 114 small cell lung.
Common to all, as to assay: NCI tumour cell line growth inhibition, 48 h

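Five compound concentrations were applied to cells in 96-well plates for 48 hours; endpoints were derived by simple linear interpolation of the resulting dose-response curve. The concentration for 50% growth inhibition is given as GI50. The concentration for full growth arrest is given as TGI.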

With `CS(C)(=O)=Nn1c(=O)n2n(c1=O)[C@H]1CC[C@@H]2C1`, the TGI in the assay on MALME-3M melanoma, in the assay on NCI/ADR-RES ovarian, with MDA-N, in the assay on ACHN renal and in the assay with A498 renal was more than 100 µM in each case.
As to `COc1cccc(/C=N/[N+](C)(C)C)c1O`, the TGI in the assay with MALME-3M melanoma, in the assay with NCI/ADR-RES ovarian, in the assay on MDA-N, in the assay with ACHN renal, in the assay with SN12C renal and in the assay on A498 renal was more than 10 µM throughout. The TGI in the assay with HCT-116 colon is more than 10 µM.
`O=C1C=CC2(C=C1)O[C@H](CCc1ccccc1)[C@@H](CCc1ccccc1)O2`: the TGI in the assay on MALME-3M melanoma, in the assay with NCI/ADR-RES ovarian, in the assay with MDA-N, in the assay with ACHN renal, in the assay with SN12C renal and with A498 renal was more than 100 µM throughout. Further, the TGI with HCT-116 colon is more than 100 µM.
As for `CC1=CC2=C(C=O)C(=O)[C@](C)(O)[C@@H](O)C2=CO1`, the TGI in the assay on SNB-78 CNS is more than 100 µM; in the assay on P388 leukemia, 35.5 µM; with M19-MEL melanoma it was more than 73.5 µM; in the assay on MALME-3M melanoma, more than 70.2 µM; in the assay with HOP-18 NSCLC, more than 92.7 µM; with DLD-1 colon, more than 100 µM. Also, the TGI in the assay on XF 498 CNS was more than 100 µM; with NCI/ADR-RES ovarian it was more than 100 µM; in the assay with SN12C renal, more than 100 µM; in the assay on P388/ADR leukemia, 33.8 µM; with DMS 273 small cell lung it was more than 90.2 µM; in the assay on A498 renal, 73.5 µM. Further, in the assay with HCT-116 colon, the TGI was more than 59.9 µM.
With `COc1cc2c(cc1OCCCN1CCOCC1)N=C[C@@H]1CCCN1C2=O`, the TGI in the assay on MALME-3M melanoma is 33.6 µM; with NCI/ADR-RES ovarian, more than 100 µM; in the assay on MDA-N it was 97.5 µM; in the assay on ACHN renal it was 92 µM; in the assay on SN12C renal, more than 100 µM; in the assay with A498 renal, 30.1 µM. The same molecule came in with a TGI in the assay with HCT-116 colon of 54.3 µM.
`O=c1c2cc([N+](=O)[O-])ccc2[nH]n1Cc1ccccc1Cl`: the TGI in the assay with MALME-3M melanoma, in the assay on NCI/ADR-RES ovarian, in the assay with MDA-N, in the assay on ACHN renal, in the assay with SN12C renal and with A498 renal was more than 100 µM in each case. In the assay with HCT-116 colon, the TGI was more than 100 µM.
As to `Cc1ccc(C(=O)c2[nH]c(NCc3ccccc3)c(C(=S)Nc3ccccc3)c2N)cc1`, the TGI in the assay on NCI/ADR-RES ovarian is 8.51 µM; in the assay on MDA-N, 12.3 µM; with ACHN renal, 23.5 µM; in the assay on SN12C renal, 28.8 µM; with A498 renal it was 31.6 µM; in the assay on HCT-116 colon it was 15.2 µM.
On to `C=C1C(=O)OC2/C=C(\CO)C3OC3C3OC3(C)CC(OC(=O)/C(=C/C)COC(C)=O)C12` (centres undefined), for which the TGI with SNB-78 CNS was 13.4 µM; in the assay with M19-MEL melanoma it was 3.94 µM; with MALME-3M melanoma, 3.09 µM; with HOP-18 NSCLC, 21.6 µM; in the assay on DLD-1 colon it was 2.53 µM; with KM20L2 colon it was 20.5 µM. In addition, the TGI with XF 498 CNS came to 4.54 µM; in the assay on NCI/ADR-RES ovarian, 41.8 µM; in the assay on MDA-N it was 13 µM; with ACHN renal, 9.68 µM; with DMS 114 small cell lung, 13.2 µM; in the assay with SN12C renal, 10.9 µM. Moreover, the TGI was 10.5 µM in the assay on DMS 273 small cell lung, 27.7 µM in the assay on A498 renal and 2.96 µM in the assay with HCT-116 colon.
For `COc1ccc2[nH]c(=O)cc(C)c2c1[N+](=O)[O-]`, the TGI with SNB-78 CNS, with M19-MEL melanoma, with MALME-3M melanoma, in the assay with DLD-1 colon, in the assay with KM20L2 colon and in the assay with XF 498 CNS was more than 100 µM throughout. Also, the TGI in the assay with ACHN renal, in the assay on DMS 114 small cell lung, in the assay with SN12C renal, with DMS 273 small cell lung, with A498 renal and in the assay with HCT-116 colon was more than 100 µM in each case.
In the case of `COc1ccc(C(=O)c2[nH]c(Nc3cc(C)ccn3)c(C(=S)Nc3ccccc3)c2N)cc1`, the TGI was found to be 30.8 µM in the assay on MALME-3M melanoma; 24.3 µM in the assay on NCI/ADR-RES ovarian; 56.2 µM in the assay on MDA-N; 97.4 µM in the assay with ACHN renal; 39.2 µM in the assay on SN12C renal; 33.1 µM with A498 renal. Besides, in the assay with HCT-116 colon, the TGI amounted to 50.6 µM.
Consider `Nc1nc(N)c2ncn(Cc3ccccc3CO)c2n1`, for which the TGI in the assay with MALME-3M melanoma, in the assay on NCI/ADR-RES ovarian, with ACHN renal, in the assay with SN12C renal, with A498 renal and with HCT-116 colon was more than 100 µM throughout.
As to `COc1cc2c(/C=C3/C(=O)Nc4cc(C)c(O)cc43)c(Cl)[nH]c2cc1C`, the TGI was 11.6 µM in the assay on MALME-3M melanoma; 12.8 µM in the assay on NCI/ADR-RES ovarian; 17.9 µM in the assay on ACHN renal; 6.07 µM in the assay on SN12C renal; 43.2 µM in the assay with A498 renal; 8.84 µM in the assay on HCT-116 colon.
As for `COc1ccc(C)cc1NC(=S)N/N=C/c1ccco1`, the TGI in the assay on MALME-3M melanoma was more than 100 µM; in the assay with NCI/ADR-RES ovarian it was more than 100 µM; with MDA-N, 68.7 µM; with ACHN renal it was more than 100 µM; with SN12C renal it was more than 100 µM; in the assay with A498 renal, more than 100 µM. Further, the TGI with HCT-116 colon is more than 100 µM.
For the molecule `Cc1c2cnccc2c(C)c2c1c1ccccc1n2CCCCCCCl`, the TGI in the assay on SNB-78 CNS was 49.8 µM; in the assay on P388 leukemia, 32.6 µM; with M19-MEL melanoma, more than 50 µM; in the assay with MALME-3M melanoma, more than 50 µM; in the assay with HOP-18 NSCLC, more than 7.93 µM; in the assay on DLD-1 colon it was more than 50 µM. In addition, the TGI with KM20L2 colon, in the assay on XF 498 CNS, in the assay on NCI/ADR-RES ovarian, in the assay on DMS 114 small cell lung, in the assay on SN12C renal and in the assay on P388/ADR leukemia was more than 50 µM in each case. Also, the TGI in the assay on DMS 273 small cell lung, in the assay with A498 renal and in the assay on HCT-116 colon was more than 50 µM each time.
Take `Nc1nc2cc(COc3ccc(C(=O)O)cc3)ccc2nc1-c1ccccc1`: the TGI in the assay with MDA-N, in the assay on ACHN renal and in the assay with SN12C renal was more than 10 µM each time.
For `O=C1Nc2ccccc2C1(O)Cc1ccccn1` (centres undefined), the TGI in the assay on MALME-3M melanoma, in the assay with NCI/ADR-RES ovarian, in the assay on MDA-N, in the assay with ACHN renal, in the assay on SN12C renal and with A498 renal was more than 100 µM in each case. In the assay on HCT-116 colon, this molecule had a TGI of more than 100 µM.
With `O=C(O)C(C1NCCS1)N1C(=O)c2ccccc2C1=O` (centres undefined), the TGI with MALME-3M melanoma, in the assay with NCI/ADR-RES ovarian, with MDA-N, in the assay with ACHN renal, with SN12C renal and in the assay on A498 renal was more than 100 µM throughout. For the same molecule, the TGI in the assay on HCT-116 colon was more than 100 µM.
Turning to `COc1cnc2oc3ccc(O)cc3c2c1-c1ccccc1`, the TGI in the assay with MALME-3M melanoma was more than 100 µM; in the assay on NCI/ADR-RES ovarian, more than 100 µM; in the assay on ACHN renal, more than 100 µM; with SN12C renal, more than 100 µM; in the assay on A498 renal, more than 100 µM; with HCT-116 colon, 45 µM.
Turning to `O=C(N/N=C/c1cc(Cl)cc(Cl)c1[O-])c1ccccc1O.O=C(N/N=C/c1cc(Cl)cc(Cl)c1[O-])c1ccccc1O.[Mn+2]`, the figures for the GI50 with MALME-3M melanoma, in the assay with KM20L2 colon and in the assay on HCT-116 colon were 1.34 µM, 2.78 µM and 0.423 µM, respectively. Also, the values for the TGI in the assay with MALME-3M melanoma, in the assay on ACHN renal and in the assay on HCT-116 colon were 7.79 µM, 11.9 µM and 13.8 µM, respectively.
For `O=C(c1ccsc1)c1nccc2c1cnc1ccccc12`, the TGI in the assay with MALME-3M melanoma, with NCI/ADR-RES ovarian, in the assay on MDA-N, with ACHN renal, with SN12C renal and in the assay with A498 renal was more than 100 µM throughout. In the assay with HCT-116 colon, this molecule yielded a TGI of more than 100 µM.
In the case of `NNC(=O)c1cc(Cl)ccc1NC(=O)C12CC3CC(CC(C3)C1)C2`, the TGI in the assay with MALME-3M melanoma was 68.6 µM; in the assay with NCI/ADR-RES ovarian, more than 100 µM; in the assay with MDA-N, 70.5 µM; in the assay on ACHN renal it was 77.8 µM; with SN12C renal it was 62.2 µM; with HCT-116 colon, 85.5 µM.
Turning to `CC(C)(C(=O)N(C(=O)N1CCN(c2ccccc2)CC1)S(=O)(=O)c1ccccc1)c1ccc(Cl)cc1`, the TGI was more than 100 µM with MALME-3M melanoma; more than 100 µM with NCI/ADR-RES ovarian; more than 100 µM with MDA-N; more than 100 µM with ACHN renal; more than 100 µM in the assay on SN12C renal; 80.8 µM with A498 renal. Besides, the TGI in the assay on HCT-116 colon was more than 100 µM.
For `O=C1Sc2sc(=S)sc2SC1c1ccccc1` (centres undefined), the TGI in the assay on SNB-78 CNS was more than 75.8 µM; in the assay with P388 leukemia, more than 67.2 µM; in the assay with M19-MEL melanoma, more than 100 µM; in the assay with MALME-3M melanoma, more than 83.5 µM; in the assay with HOP-18 NSCLC it was more than 100 µM; with DLD-1 colon it was more than 90.9 µM. Besides, the TGI was more than 100 µM with KM20L2 colon; more than 79.1 µM with XF 498 CNS; more than 100 µM with NCI/ADR-RES ovarian; more than 100 µM in the assay on DMS 114 small cell lung; more than 100 µM in the assay with SN12C renal; more than 67.7 µM in the assay on P388/ADR leukemia. The TGI with DMS 273 small cell lung, in the assay with A498 renal and with HCT-116 colon was more than 100 µM in each case.
For `C=C1C(=O)OC2/C=C(CO)/C=C\C3OC3(C)CC(OC(=O)/C(C)=C/COC(C)=O)C12` (centres undefined), the TGI came to 23.4 µM in the assay on SNB-78 CNS; 4.15 µM with M19-MEL melanoma; 3.38 µM in the assay with MALME-3M melanoma; 22.1 µM in the assay with HOP-18 NSCLC; 2.49 µM with DLD-1 colon; 17 µM with KM20L2 colon. The TGI with XF 498 CNS is 6.47 µM; with NCI/ADR-RES ovarian, 15.8 µM; in the assay on MDA-N, 4.13 µM; in the assay on ACHN renal, 9.16 µM; with DMS 114 small cell lung it was 10.9 µM; in the assay with SN12C renal it was 5.63 µM. For the same molecule, the TGI with DMS 273 small cell lung was 4.3 µM; in the assay with A498 renal, 20.6 µM; in the assay on HCT-116 colon, 2.83 µM.
